Measurements as given in ChEMBL document CHEMBL4346760, “Alkynamide phthalazinones as a new class of TbrPDEB1 inhibitors (Part 2)” (Bioorg Med Chem, 2019).
The source made the active and inactive calls. No cut-off for these calls is given here.

Key:
Trypanosoma brucei [1] = assay: Antitrypanosomal activity against Trypanosoma brucei Squib 427 trypomastigotes assessed as reduction in parasite growth incubated for 72 hrs by resazurin dye-based fluorimetric analysis; type: functional, organism-based; details: Squib 427, 72 h
[2] = Cytotoxicity against human MRC5 cells assessed as reduction in cell viability incubated for 72 hrs by resazurin dye-based fluorimetric analysis
[3] = target: 3',5'-cyclic-AMP phosphodiesterase 4B (Homo sapiens, UniProt Q07343); assay: Inhibition of human PDE4B catalytic domain using cAMP as substrate incubated for 20 mins by PDELight HTS cAMP phosphodiesterase Kit based luminometry
[4] = target: T1, Class 1 phosphodiesterase PDEB1 (Trypanosoma brucei, UniProt Q8WQX9); assay: Inhibition of Trypanosoma brucei PDEB1 catalytic domain using cAMP as substrate incubated for 20 mins by PDELight HTS cAMP phosphodiesterase Kit based luminometry
T1 sequence (Q8WQX9 whole entry): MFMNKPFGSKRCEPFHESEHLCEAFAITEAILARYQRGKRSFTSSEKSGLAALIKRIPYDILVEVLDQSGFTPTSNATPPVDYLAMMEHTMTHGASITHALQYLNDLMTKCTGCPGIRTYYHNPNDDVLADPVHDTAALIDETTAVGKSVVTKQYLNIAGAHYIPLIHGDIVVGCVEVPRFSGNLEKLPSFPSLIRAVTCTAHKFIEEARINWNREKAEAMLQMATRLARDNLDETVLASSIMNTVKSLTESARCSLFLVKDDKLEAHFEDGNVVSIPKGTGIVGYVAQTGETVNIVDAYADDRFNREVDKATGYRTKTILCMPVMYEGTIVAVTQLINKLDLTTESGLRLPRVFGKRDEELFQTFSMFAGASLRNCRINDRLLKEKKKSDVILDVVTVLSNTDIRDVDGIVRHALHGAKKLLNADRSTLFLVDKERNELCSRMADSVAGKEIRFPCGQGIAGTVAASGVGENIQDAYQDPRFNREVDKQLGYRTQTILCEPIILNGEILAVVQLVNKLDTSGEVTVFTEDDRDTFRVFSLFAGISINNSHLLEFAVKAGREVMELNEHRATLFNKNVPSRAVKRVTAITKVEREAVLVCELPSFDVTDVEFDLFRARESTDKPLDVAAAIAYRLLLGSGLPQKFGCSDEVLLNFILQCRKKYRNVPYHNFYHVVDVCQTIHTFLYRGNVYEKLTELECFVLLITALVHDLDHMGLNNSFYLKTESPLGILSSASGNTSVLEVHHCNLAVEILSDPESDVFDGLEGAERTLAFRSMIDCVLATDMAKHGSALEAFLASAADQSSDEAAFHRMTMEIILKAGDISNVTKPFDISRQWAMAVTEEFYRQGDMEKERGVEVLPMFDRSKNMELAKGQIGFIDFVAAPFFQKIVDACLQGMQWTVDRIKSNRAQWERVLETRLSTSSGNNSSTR

[5] = Selectivity index, ratio of pKi for Trypanosoma brucei PDEB1 to pKi for human PDE4B using cAMP as substrate incubated for 20 mins by PDELight HTS cAMP phosphodiesterase Kit based luminometry
Trypanosoma brucei [6] = assay: Antitrypanosomal activity against procyclic form of Trypanosoma brucei 2913 assessed as increase in intracellular cAMP level at 1 to 10 uM by cAMP sensor based FRET assay; type: functional, organism-based
[7] = target: T1, Class 1 phosphodiesterase PDEB1; assay: Binding affinity to Trypanosoma brucei PDEB1 assessed as dissociation constant treated for 320 secs measured for 900 secs by SPR assay
Trypanosoma brucei [8] = assay: Antitrypanosomal activity against bloodstream form of Trypanosoma brucei 221 cells assessed as blockade in cytokinesis with multiple flagella and nuclei formation at 1 uM incubated for 24 to 48 hrs by DAPI/PFR-staining based fluorescence microscopy; type: functional, organism-based
[9] = target: T2, 3',5'-cyclic-AMP phosphodiesterase 4D (Homo sapiens, UniProt Q08499); assay: Binding affinity to human PDE4D assessed as dissociation constant treated for 320 secs measured for 900 secs by SPR assay
[10] = target: T2, 3',5'-cyclic-AMP phosphodiesterase 4D; assay: Binding affinity to human PDE4D assessed as dissociation constant treated for 60 secs measured for 300 secs by SPR assay
[11] = target: T1, Class 1 phosphodiesterase PDEB1; assay: Binding affinity to Trypanosoma brucei PDEB1 assessed as dissociation constant treated for 60 secs measured for 300 secs by SPR assay

Chain of 3',5'-cyclic-AMP phosphodiesterase 4B (Q07343 whole entry, the tested form may be a part): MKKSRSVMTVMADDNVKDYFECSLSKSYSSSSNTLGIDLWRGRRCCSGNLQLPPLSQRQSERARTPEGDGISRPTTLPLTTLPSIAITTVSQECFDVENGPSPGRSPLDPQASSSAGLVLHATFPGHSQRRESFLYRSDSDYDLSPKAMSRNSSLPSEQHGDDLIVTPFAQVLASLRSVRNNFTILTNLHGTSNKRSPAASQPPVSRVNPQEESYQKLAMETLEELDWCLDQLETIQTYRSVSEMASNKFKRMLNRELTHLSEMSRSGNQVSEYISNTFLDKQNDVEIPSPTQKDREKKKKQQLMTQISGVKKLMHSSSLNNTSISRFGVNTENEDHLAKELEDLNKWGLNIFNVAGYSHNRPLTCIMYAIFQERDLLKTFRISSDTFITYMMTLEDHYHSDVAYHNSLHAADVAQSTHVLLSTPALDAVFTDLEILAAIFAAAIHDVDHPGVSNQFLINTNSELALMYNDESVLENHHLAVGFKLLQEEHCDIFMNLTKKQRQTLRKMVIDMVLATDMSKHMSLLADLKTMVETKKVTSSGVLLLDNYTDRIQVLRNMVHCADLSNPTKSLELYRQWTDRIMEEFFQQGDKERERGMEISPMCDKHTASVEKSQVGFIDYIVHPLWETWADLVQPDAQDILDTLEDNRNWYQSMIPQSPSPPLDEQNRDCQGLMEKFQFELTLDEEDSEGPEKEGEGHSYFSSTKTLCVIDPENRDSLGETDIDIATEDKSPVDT
T2 sequence (Q08499 whole entry): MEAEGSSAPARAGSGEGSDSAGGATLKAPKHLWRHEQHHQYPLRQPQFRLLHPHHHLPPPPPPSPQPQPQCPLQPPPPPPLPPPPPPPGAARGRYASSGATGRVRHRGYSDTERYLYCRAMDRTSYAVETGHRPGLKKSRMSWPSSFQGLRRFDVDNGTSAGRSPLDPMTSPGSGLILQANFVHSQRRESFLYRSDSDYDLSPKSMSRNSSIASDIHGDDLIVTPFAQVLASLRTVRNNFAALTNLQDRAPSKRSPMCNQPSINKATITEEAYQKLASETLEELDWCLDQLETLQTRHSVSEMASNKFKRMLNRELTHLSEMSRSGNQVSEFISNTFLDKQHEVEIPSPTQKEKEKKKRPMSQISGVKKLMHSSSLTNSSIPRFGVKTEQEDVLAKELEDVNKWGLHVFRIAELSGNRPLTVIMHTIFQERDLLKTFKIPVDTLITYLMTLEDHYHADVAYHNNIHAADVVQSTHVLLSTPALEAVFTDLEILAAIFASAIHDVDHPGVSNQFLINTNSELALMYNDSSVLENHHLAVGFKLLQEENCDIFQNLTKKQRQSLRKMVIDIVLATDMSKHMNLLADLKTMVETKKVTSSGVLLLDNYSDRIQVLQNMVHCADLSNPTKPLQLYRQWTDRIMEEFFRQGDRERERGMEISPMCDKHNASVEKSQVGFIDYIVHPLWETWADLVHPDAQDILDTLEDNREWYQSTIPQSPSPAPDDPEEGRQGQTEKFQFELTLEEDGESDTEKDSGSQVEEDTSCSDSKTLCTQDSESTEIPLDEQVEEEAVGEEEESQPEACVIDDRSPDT

Row | SMILES | IC50 (Trypanosoma brucei [1]) [nM] | Ki [3] [nM] | Ki [4] [nM] | Ratio pKi [5] | Kd [7] [nM] | Kd [9] [nM] | Kd [10] [nM] | Kd [11] [nM] | CC50 at 72 h [2] [nM] | Activity (Trypanosoma brucei [6]) | Activity (Trypanosoma brucei [8])
1 | COc1cccc(NC(=O)C#Cc2cc(C3=NN(C(C)C)C(=O)[C@@H]4CC=CC[C@H]34)ccc2OC)c1 (relative stereo) | 1580 | 1000 | 200 |  |  |  |  |  | > 63100 |  | 
2 | COc1ccc(C2=NN(C(C)C)C(=O)[C@@H]3CC=CC[C@H]23)cc1C#CC(=O)N1CC(C#N)C1 (relative stereo) | 7940 | 398 | 631 |  |  |  |  |  | 7940 |  | 
3 | COc1ccc(C2=NN(C(C)C)C(=O)[C@@H]3CC=CC[C@H]23)cc1C#CC(=O)NCc1ccco1 (relative stereo) | 2510 | 398 | 126 |  |  |  |  |  | > 63100 |  | 
4 | COc1ccc(C2=NN(C(C)C)C(=O)[C@@H]3CC=CC[C@H]23)cc1C#CC(=O)NCCc1ccccc1F (relative stereo) | 2000 | 794 | 316 |  |  |  |  |  | > 63100 |  | 
5 | CCCCNC(=O)C#Cc1cc(C2=NN(C(C)C)C(=O)[C@@H]3CC=CC[C@H]23)ccc1OC (relative stereo) | 7940 | 501 | 316 |  |  |  |  |  | > 63100 |  | 
6 | COc1ccc(C2=NN(C(C)C)C(=O)[C@@H]3CC=CC[C@H]23)cc1C#CC(=O)Nc1cnn(C)n1 (relative stereo) | > 63100 | 501 | 2510 |  |  |  |  |  | 10000 |  | 
7 | COc1ccc(C2=NN(C3CCCCCC3)C(=O)[C@@H]3CC=CC[C@H]23)cc1C#CC(N)=O |  | 316 | 631 |  |  |  |  |  |  |  | 
8 | COc1ccc(C2=NN(C(C)C)C(=O)[C@@H]3CC=CC[C@H]23)cc1C#CC(=O)NCc1sc(C)nc1C (relative stereo) | 2000 | 251 | 200 |  |  |  |  |  | 7940 |  | 
9 | COc1ccc(C2=NN(C(C)C)C(=O)[C@@H]3CC=CC[C@H]23)cc1C#CC(=O)NCc1ccccc1 (relative stereo) | 631 | 794 | 158 |  | 79.4 | 79.4 |  |  | > 63100 | Active | Active
10 | COc1ccc(C2=NN(C(C)C)C(=O)[C@@H]3CC=CC[C@H]23)cc1C#CC(=O)NCC1CCC1 (relative stereo) | 6310 | 794 | 316 |  |  |  |  |  | > 63100 |  | 
11 | COc1ccc(C2=NN(C(C)C)C(=O)[C@@H]3CC=CC[C@H]23)cc1C#CC(=O)NCc1csc(C)n1 (relative stereo) | 2000 | 1000 | 316 |  |  |  |  |  | 12600 |  | 
12 | COc1ccc(C2=NN(C(C)C)C(=O)[C@@H]3CC=CC[C@H]23)cc1C#CC(=O)N1CCOCC1 (relative stereo) | 10000 | 794 | 1000 |  |  |  |  |  | 31600 |  | 
13 | COc1ccc(C2=NN(C(C)C)C(=O)[C@@H]3CC=CC[C@H]23)cc1C#CC(=O)NCc1ccncc1 (relative stereo) | 1000 | 631 | 100 |  |  |  |  |  | 31600 | Active | Active

Second part, led by results:

Row | IC50 (Trypanosoma brucei [1]) [nM] | Ki [3] [nM] | Ki [4] [nM] | Ratio pKi [5] | Kd [7] [nM] | Kd [9] [nM] | Kd [10] [nM] | Kd [11] [nM] | SMILES | CC50 at 72 h [2] [nM] | Activity (Trypanosoma brucei [6]) | Activity (Trypanosoma brucei [8])
14 | 3160 | 200 | 200 |  |  |  |  |  | COc1ccc(C2=NN(C(C)C)C(=O)[C@@H]3CC=CC[C@H]23)cc1C#CC(=O)NCc1ccc(C)o1 (relative stereo) | > 63100 |  | 
15 | 7940 | 631 | 398 |  |  |  |  |  | COc1ccc(C2=NN(C(C)C)C(=O)[C@@H]3CC=CC[C@H]23)cc1C#CC(=O)NCCCn1ccnc1 (relative stereo) | 251 |  | 
16 | 7940 | 1260 | 398 |  |  |  |  |  | COc1ccc(C2=NN(C(C)C)C(=O)[C@@H]3CC=CC[C@H]23)cc1C#CC(=O)NCC1CCCO1 (relative stereo) | 31600 |  | 
17 | 2000 | 1260 | 794 |  |  |  |  |  | COc1ccc(C2=NN(C(C)C)C(=O)[C@@H]3CC=CC[C@H]23)cc1C#CC(=O)Nc1ccn(CCCC#N)n1 (relative stereo) | 7940 |  | 
18 | 1000 | 501 | 126 |  |  |  |  |  | COc1ccc(C2=NN(C(C)C)C(=O)[C@@H]3CC=CC[C@H]23)cc1C#CC(=O)NCc1cccs1 (relative stereo) | 63100 |  | 
19 | 5010 | 398 | 251 |  |  |  |  |  | COc1ccc(C2=NN(C(C)C)C(=O)[C@@H]3CC=CC[C@H]23)cc1C#CC(=O)NCCc1nccs1 (relative stereo) | 10000 |  | 
20 |  |  |  | 1 |  |  |  |  | COc1ccc(C2=NN(C3CCCCCC3)C(=O)[C@@H]3CC=CC[C@H]23)cc1-c1ccc(C(=O)NCC(N)=O)cc1 |  |  | 
21 | 1260 | 501 | 100 |  |  |  |  |  | COc1ccc(C2=NN(C(C)C)C(=O)[C@@H]3CC=CC[C@H]23)cc1C#CC(=O)NCc1cccnc1 (relative stereo) | 3980 |  | 
22 | 7940 | 316 | 398 |  |  |  |  |  | COc1ccc(C2=NN(C(C)C)C(=O)[C@@H]3CC=CC[C@H]23)cc1C#CC(=O)NCC1CC1 (relative stereo) | > 63100 |  | 
23 | 6310 | 316 | 501 |  |  |  | 251 | 794 | COc1ccc(C2=NN(C(C)C)C(=O)[C@@H]3CC=CC[C@H]23)cc1C#CC(N)=O (relative stereo) | 31600 |  | 
24 | 1580 | 631 | 126 |  |  |  |  |  | COc1ccc(C2=NN(C(C)C)C(=O)[C@@H]3CC=CC[C@H]23)cc1C#CC(=O)NCc1cnn(C)c1 | 20000 |  | 
25 | 2510 | 794 | 398 |  |  |  |  |  | COc1ccc(C2=NN(C(C)C)C(=O)[C@@H]3CC=CC[C@H]23)cc1C#CC(=O)NCCc1cccs1 (relative stereo) | > 63100 |  | 
26 | 25100 | 794 | 1000 |  |  |  |  |  | COc1ccc(C2=NN(C(C)C)C(=O)[C@@H]3CC=CC[C@H]23)cc1C#CC(=O)NCCC#N (relative stereo) | 31600 |  | 
